Assay results published in ChEMBL document CHEMBL4417638, “Novel cyclic peptides and uses thereof” (2018).
Active and inactive are the calls of the source. The calls are words filed in the database; no cut-off is given here. Numbered stars: 1 amine (or outer) side, 2 acyl side, 3 side chain; on linkers, the order of the positions; unused ones are H or OH. Square brackets hold non-standard residues; d marks the D form. Peptide text beside a SMILES is read from it. azaTyr = O=C(N(Cc1ccc(O)cc1)N[*:1])[*:2]

Legend:
[1] = system: Mus musculus; assay: Protection against photoreceptor degeneration in mouse model of intense blue light-induced dry age related macular degeneration assessed as improvement of retinal function by measuring increase in a-wave and b-wave amplitudes at 289 nmol/kg, sc starting one day after start of blue-light exposure for 7 consecutive days by electroretinography analysis; format: functional, organism-based
[2] = system: Mus musculus; assay: Protection against photoreceptor degeneration in mouse model of intense blue light-induced dry age related macular degeneration assessed as reduction in subretinal inflammation by measuring reduction in IL-1p-expressing immune cell infiltration in retina at 289 nmol/kg, sc starting one day after start of blue-light exposure for 7 consecutive days; format: functional, organism-based
[3] = system: Mus musculus; assay: Protection against photoreceptor degeneration in mouse model of intense blue light-induced dry age related macular degeneration assessed as preservation of ONL thickness at 289 nmol/kg, sc starting one day after start of blue-light exposure for 7 consecutive days; format: functional, organism-based
[4] = system: RAW264.7; assay: Inhibition of R-FSL-1-induced nitric oxide production in mouse RAW264.7 cells at 10 uM pre-incubated for 1 hr before R-FSL-1 stimulation by fluorescence based assay relative to control; format: functional
[5] = system: BMDM; assay: Inhibition of R-FSL-1-induced TNFalpha production in C57BL/6 mouse BMDM at 10 pM to 1 uM pre-incubated for 30 mins before R-FSL-1 stimulation for 4 hrs by ELISA; format: functional, cell-based
[6] = system: RAW264.7; assay: Inhibition of R-FSL-1-induced CCL2 production in mouse RAW264.7 cells at 10 uM pre-incubated for 30 mins before R-FSL-1 stimulation for 4 hrs by ELISA; format: functional, cell-based
[7] = system: RAW264.7; assay: Inhibition of R-FSL-1-induced TNFalpha production in mouse RAW264.7 cells at 10 uM pre-incubated for 30 mins before R-FSL-1 stimulation for 4 hrs by ELISA; format: functional, cell-based
[8] = system: BMDM; assay: Inhibition of R-FSL-1-induced IL-1beta production in C57BL/6 mouse BMDM at 10 pM to 1 uM pre-incubated for 30 mins before R-FSL-1 stimulation for 4 hrs by ELISA; format: functional, cell-based
[9] = system: Mus musculus; assay: Anti-atherosclerotic activity in atherogenic diet fed apoE-/- mouse assessed as reduction in aortic lesions at 300 nmol/kg, sc dosed daily for 8 weeks from 12 weeks of age relative to control; format: functional
[10] = target: Platelet glycoprotein 4 (Rattus norvegicus, UniProt Q07969); assay: Displacement of [125]-Tyr-Bpa-Ala-Hexarelin from CD36 in Sprague-Dawley rat heart membranes incubated for 60 mins; format: cell membranes
Platelet glycoprotein 4, sequence (Q07969 whole entry): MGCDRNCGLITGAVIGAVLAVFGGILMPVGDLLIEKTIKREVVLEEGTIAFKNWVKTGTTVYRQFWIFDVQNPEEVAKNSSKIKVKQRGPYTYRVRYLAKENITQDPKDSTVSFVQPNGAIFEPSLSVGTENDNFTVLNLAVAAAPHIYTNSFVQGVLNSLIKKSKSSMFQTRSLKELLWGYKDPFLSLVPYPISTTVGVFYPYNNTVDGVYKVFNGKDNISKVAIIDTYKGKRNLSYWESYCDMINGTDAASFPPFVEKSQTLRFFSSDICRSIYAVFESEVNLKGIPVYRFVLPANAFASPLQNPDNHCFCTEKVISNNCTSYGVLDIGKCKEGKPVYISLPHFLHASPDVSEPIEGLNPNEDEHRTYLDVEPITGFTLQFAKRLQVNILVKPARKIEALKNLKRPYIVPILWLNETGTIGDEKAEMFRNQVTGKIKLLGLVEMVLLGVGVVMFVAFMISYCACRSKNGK

With `C=CCN1CC#CCN(NC(=O)[C@H](C)N)C(=O)N[C@H](Cc2c[nH]c3ccccc23)C(=O)N[C@@H](C)C(=O)N[C@@H](Cc2c[nH]c3ccccc23)C(=O)N[C@H](Cc2ccccc2)C(=O)N[C@H](C(N)=O)CCCC1` the Activity [1] was “Active”, the Activity [2] was “Active” and the Activity [3] was “Active”. The inhibition [4] was “Active”, the inhibition [5] was “Active” and the inhibition [6] was “Active”. The inhibition [7] was “Active” and the inhibition [8] was “Active”.
With `C[C@H](NC(=O)[C@@H](Cc1c[nH]c2ccccc12)NC(=O)[C@@H](N)Cc1cnc[nH]1)C(=O)NN(Cc1ccc(O)cc1)C(=O)N[C@H](Cc1ccccc1)C(=O)N[C@@H](CCCCN)C(N)=O` (H-H[dW]A[azaTyr][dF]K-NH2) the inhibition [9] was “Active”, the inhibition [6] was “Active” and the inhibition [7] was “Active”.
`C=CCN1CC#CCN(N)C(=O)N[C@H](Cc2c[nH]c3ccccc23)C(=O)N[C@@H](C)C(=O)N[C@@H](Cc2c[nH]c3ccccc23)C(=O)N[C@H](Cc2ccccc2)C(=O)N[C@H](C(N)=O)CCCC1` was tested, and the inhibition at 10 µM [4] was 80%, the inhibition [9] was “Active” and the inhibition [6] was “inactive”. The inhibition [7] was “inactive”.
`C=CCN1CC#CC[C@H](NC(=O)[C@H](C)N)C(=O)N[C@@H](C)C(=O)N[C@@H](Cc2c[nH]c3ccccc23)C(=O)N[C@H](Cc2ccccc2)C(=O)N[C@H](C(N)=O)CCCC1` was tested, and the inhibition [4] was “Active”.
For `C=CCN1CC#CCN(NC(=O)[C@H](C)NC(C)=O)C(=O)N[C@H](Cc2c[nH]c3ccccc23)C(=O)N[C@@H](C)C(=O)N[C@@H](Cc2c[nH]c3ccccc23)C(=O)N[C@H](Cc2ccccc2)C(=O)N[C@H](C(N)=O)CCCC1`, the inhibition at 10 µM [4] was 80%, the inhibition [9] was “Active” and the inhibition [6] was “Active”. For the same compound, the inhibition [7] was “Active”.
In the case of `C[C@@H]1NC(=O)[C@@H](Cc2c[nH]c3ccccc23)NC(=O)N(NC(=O)CN)CC#CCN(CC2CC2)CCCC[C@@H](C(N)=O)NC(=O)[C@@H](Cc2ccccc2)NC(=O)[C@H](Cc2c[nH]c3ccccc23)NC1=O`, the IC50 [10] is reported as 980 nM and the inhibition [4] is reported as “Active”.
For `C=CCN1CC#CCN(NC(C)=O)C(=O)N[C@H](Cc2c[nH]c3ccccc23)C(=O)N[C@@H](C)C(=O)N[C@@H](Cc2c[nH]c3ccccc23)C(=O)N[C@H](Cc2ccccc2)C(=O)N[C@H](C(N)=O)CCCC1`, the inhibition at 10 µM [4] was 80%, the inhibition [9] was “Active” and the inhibition [6] was “Active”. For the same compound, the inhibition [7] was “Active”.
`C=CCN1CC#CCN(NC(=O)[C@@H](C)N)C(=O)N[C@H](Cc2c[nH]c3ccccc23)C(=O)N[C@@H](C)C(=O)NN(Cc2ccc(OC)cc2)C(=O)N[C@H](Cc2ccccc2)C(=O)N[C@H](C(N)=O)CCCC1` was tested, and the inhibition [4] was “Active”.
`C=CCN1CC#CCN(NC(=O)[C@H](C)N)C(=O)N[C@H](Cc2c[nH]c3ccccc23)C(=O)N[C@@H](C)C(=O)N[C@H](C(=O)N[C@H](Cc2ccccc2)C(=O)N[C@@H](CCCCN)C(N)=O)CCCC1` was tested, and the inhibition [4] was “Active”.
`C=CCN1CC#CCN(NC(=O)CN)C(=O)N[C@H](Cc2c[nH]c3ccccc23)C(=O)N[C@@H](C)C(=O)N[C@@H](Cc2c[nH]c3ccccc23)C(=O)N[C@H](Cc2ccccc2)C(=O)N[C@H](C(N)=O)CCCC1` gave an IC50 [10] of 12900 nM.
In the case of `C=CCN1CC#CCN(NC(=O)[C@@H](Cc2c[nH]c3ccccc23)NC(=O)[C@@H](N)Cc2cnc[nH]2)C(=O)N[C@@H](Cc2c[nH]c3ccccc23)C(=O)N[C@H](Cc2ccccc2)C(=O)N[C@H](C(N)=O)CCCC1`, the inhibition [4] is reported as “Active”, the inhibition [6] is reported as “Active” and the inhibition [7] is reported as “Active”.
For `C=CCN1CC#CCN(NC(=O)[C@H](C)N)C(=O)N[C@@H](C)C(=O)N[C@@H](Cc2c[nH]c3ccccc23)C(=O)N[C@H](Cc2ccccc2)C(=O)N[C@H](C(N)=O)CCCC1`, the inhibition [4] was “Active”, the inhibition [6] was “Active” and the inhibition [7] was “Active”.
With `CCCN1CC#CCN(NC(=O)CN)C(=O)N[C@H](Cc2c[nH]c3ccccc23)C(=O)N[C@@H](C)C(=O)N[C@@H](Cc2c[nH]c3ccccc23)C(=O)N[C@H](Cc2ccccc2)C(=O)N[C@H](C(N)=O)CCCC1` the IC50 [10] was 1490 nM and the inhibition [4] was “Active”.
For `CN1CC#CCN(NC(=O)[C@@H](Cc2c[nH]c3ccccc23)NC(=O)[C@@H](N)Cc2cnc[nH]2)C(=O)N[C@@H](Cc2c[nH]c3ccccc23)C(=O)N[C@H](Cc2ccccc2)C(=O)N[C@H](C(N)=O)CCCC1`, the inhibition [6] was “inactive” and the inhibition [7] was “inactive”.
For `C=CCN1CC#CC[C@H](NC(=O)[C@H](C)N)C(=O)N[C@H](Cc2c[nH]c3ccccc23)C(=O)N[C@@H](C)C(=O)N[C@@H](Cc2c[nH]c3ccccc23)C(=O)N[C@H](Cc2ccccc2)C(=O)N[C@H](C(N)=O)CCCC1`, the inhibition [4] was “Active”.
